{"source": "patent US8795222B2", "about": "“Device and method for treatment of surface infections with nitric oxide” (Pulmonox Technologies Corp., priority 2000, dated 2014)", "key": {"[1]": {"system": "non-healing venous leg ulcer", "experiment": "Human case study, non-healing venous leg ulcer, topical gNO", "type": "in vivo", "source_text": "This case study involved a person with a 30 year history of severe venous disease, both deep and superficial, related to deep vein thrombophlebitis. Initially, while, the patient developed bilateral non-healing venous leg ulcers that were surgically treated. The surgical sites healed but the ulcers continued to recur. Initially, the patient presented with a small ulcer located just below the medial malleolus of the left ankle.\nArrangements were made to meet at the patient's home the following day to set up the equipment and for them to have a repeat training on the use of the treatment system. Training included use of the system as well as safety information on using the gas equipment.\nNitric oxide gas (ViaNOx-H, VIASYS Healthcare, Yorba Linda, Calif., USA) was applied to the lower extremity with use of a gas-diluting delivery system (CidaNOx Delivery System) designed specifically for the study (PulmoNOx Medical Inc., Edmonton, Alberta, Canada). This CidaNOx delivery system contains an internal air pump for dilution of the gNO and a flow control circuit to dilute the 800 parts per million (ppm) in the NO source cylinder down to the therapeutic level of 200 ppm. The total flow from the system was 1.0 L/min and included one-quarter of a liter per minute (250 ml/min) flow of gNO. Several internal pressure sensors assure the dilution flow is operational and monitor the system. The flow of nitric oxide was limited to 250 ml/min by a mechanically set pressure regulator and a mechanical flowmeter that have no external controls that could be changed by the patient. The concentration of nitric oxide delivered was assured by measurement of the CidaNOx output with a calibrated nitric oxide analyzer (AeroNOx, Pulmonox Medical Inc.) that is approved for monitoring inhaled NO in human patients.\nThe 200 ppm gNO from the CidaNOx Delivery System flowed out to a single patient use plastic boot that covered the patient's lower extremity. […] A secondary air outlet from the CidaNOx unit managed the inflation of the cuff. The patient connected the pump outlet to the cuff connector until it was inflated and then the connector was sealed closed with the provided clamp. […]\nTo explore the potential for wound bed preparation and accelerated wound healing from prolonged use, treatment regimen beyond three days was chosen and which was stopped at 14 days to evaluate the short-term effects and explore the possibility that the short-term effects would improve the longer-term outcome. […] The patient recorded the date, time, and duration of each treatment period on a data sheet, and any significant observations related to the wound, treatment, or equipment. The wound size (cm^2) was measured using digital photography and densitometry technique (Scion Image −4.02, Scion Corp., Frederick Md., USA). […]"}, "collagen mRNA": {"system": "collagen mRNA", "experiment": "mRNA expression after gNO exposure", "type": "cell-based", "source_text": "Rather than applying exogenous collagenase for enzymatic debridement of necrotic tissue, exposing a wound with necrotic tissue to exogenous NO gas to upregulate endogenous collagenase may be more beneficial. When endogenous collagenase is released by the cell, it automatically releases TIMP's (tissue inhibitor of metalloproteinase). This ensures that the matrix degradation is coordinated and allows the establishment of sharp geographical boundaries of collagenolytic activity and the protection of areas of connective tissue from the activity of the enzyme. In contrast, use of exogenous collagenase material to debride a wound confers no protection to specific areas of the wound as it is active on every cell that comes in contact with it whether or not the effect is desired.\nPreferably, after the exposure of the wound to high concentration of nitric oxide gas for a first treatment period (e.g., 5-8 hours per day), the necrotic tissue may be mechanically removed easily and the concentration of nitric oxide gas can be decreased for a second treatment period. The low concentration of nitric oxide gas (e.g., at 5-20 ppm) delivered for the second treatment period may upregulate the expression of collagen mRNA leading to synthesis of new collagen to aid in the closure of the wound. […] The second treatment period may be for a period 7-16 hours per day. […]"}, "P. aeruginosa": {"system": "P. aeruginosa", "experiment": "gNO dose study, colony growth on agar plates", "type": "cell-based", "protocol": "FIG. 7 depicts a Pseudomonas aeruginosa dosage curve for exposure to NO gas with bacteria grown on solid media. Relative percentages of growth of P. aeruginosa colony forming units (cfu) at 50, 80, 120 and 160 parts per million (ppm) of nitric oxide compared with growth of P. aeruginosa cfu in medical air (100%) are shown.\nTo study the effects of gaseous nitric oxide on potential pathogens, a custom gas exposure incubator was designed and validated for temperature, humidity, and gas concentrations, providing an environment that matches that of a microbiologic incubator, while enabling controlled exposure of precise concentrations of the gas. […] The gNO chamber allowed control and adjustment of following factors in all in vitro studies: gNO dose, total air flow, NO2 levels, O2 levels, CO2 levels, temperature, and humidity. For the initial pilot studies, two strains of bacterial pathogen were selected based on two proposed clinical applications of gNO for respiratory infections and topical application. P. aeruginosa is associated primarily with pulmonary disease, but may also be associated with skin infection such as in severe burns. S. aureus is associated with surface wound infections. Both of these micro-organisms were chosen for the pilot study.\nThe first step in the process of evaluating the direct effect of gNO on bacteria was to design a simple study to determine what dose, if any, would be an approximate lethal concentration level for microbes. Once an optimal dose was estimated, then a timing study would be conducted. For these initial studies, highly dense inoculums of P. aeruginosa and S. aureus suspensions (10^8 cfu/ml) were plated onto agar plates. These plates were then exposed to various concentrations of gNO in the exposure device in order to evaluate the effect on colony growth."}}}
{"smiles": "[N]=O", "note": "[gNO, nitric oxide]", "values": [{"measurement": "ulcer status", "setting": "[1]; 26 weeks post NO discontinuation", "result": "completely healed and reepithelialized"}, {"measurement": "wound size, day 3", "setting": "[1]; 200 ppm gNO nightly, day 3, 24 hours cumulative exposure, p=0.014", "result": "Significant wound size reduction"}, {"measurement": "reduction in wound area", "setting": "[1]; 200 ppm gNO nightly, end of therapy at day 14", "result": "approximately 75%"}, {"measurement": "wound healed", "setting": "[1]; six weeks after the end of 14-day 200 ppm gNO treatment", "result": "about 90%"}, {"measurement": "collagen mRNA expression", "setting": "collagen mRNA; fibroblast exposed to 5 ppm of NO", "result": "increased collagen mRNA expression"}, {"measurement": "collagen expression", "setting": "collagen mRNA; high concentration, 200 ppm gNO, 24 hours and 48 hours", "result": "possible inhibition of collagen expression"}, {"measurement": "colony size and number after transfer to a conventional incubator", "setting": "P. aeruginosa; 24 hours after gNO exposure, controls overgrew", "result": "remained the same in size and number"}, {"measurement": "time required to achieve the >90% reduction of colony formation", "setting": "P. aeruginosa; gNO greater than 120 ppm, agar plates", "result": "8 to 12", "unit": "h"}, {"measurement": "reduction of colony formation", "setting": "P. aeruginosa; gNO greater than 120 ppm, agar plates, compared with medical air", "result": "greater than 90%"}, {"measurement": "survival", "setting": "P. aeruginosa; increasing gNO to 120 ppm, agar plates", "result": "5-10%"}]}
